Measured values reported in the PolyMetriX glass transition set.
± gives the standard deviation of the reports.

glass transition temperature [°C] | SMILES
105.00 | *OC(COC(=O)C12CC3CC(CC(C(*)=O)(C3)C1)C2)COc1ccc(/N=N/c2ccc(C#N)cc2)cc1 (repeat unit)
354.50 | *c1ccc(-c2cc(C(C)(C)C)c(Oc3ccc(N4C(=O)c5ccc(S(=O)(=O)c6ccc7c(c6)C(=O)N(*)C7=O)cc5C4=O)cc3)c(C(C)(C)C)c2)cc1 (repeat unit)
26.70 | *O[Si](*)(C)CCCCCCCCCCC(=O)Oc1ccc(C(=O)Oc2ccc(-c3ccc(OCC(C)CC)cc3)cc2)cc1 (repeat unit)
-4.00 | *c1ccc(-c2sc(-c3ccc(-c4cc(CCCCCCCC)c(*)s4)cc3)cc2CCCCCCCC)cc1 (repeat unit)
285.50 | *C(=O)c1ccc2c(c1)C(=O)N(c1ccc(C(=O)c3ccc(Cc4ccc(C(=O)c5ccc(N6C(=O)c7ccc(*)cc7C6=O)cc5)cc4)cc3)cc1)C2=O (repeat unit)
197.00 | *c1ccc(/C=C(\c2ccc(OC)cc2)c2ccc(/C(=C/c3ccc(N(*)c4ccccc4)cc3)c3ccc(OC)cc3)cc2)cc1 (repeat unit)
218.00 | *c1ccc(C(c2ccc(N3C(=O)c4ccc(Oc5ccc6cc(Oc7ccc8c(c7)C(=O)N(*)C8=O)ccc6c5)cc4C3=O)cc2)(C(F)(F)F)C(F)(F)F)cc1 (repeat unit)
-40.50 | *CC(*)(CC(=O)OCCOCCOC)C(=O)OCCOCCOC (repeat unit)
285.00 | *c1c(C)cc(-c2cc(C)c(N3C(=O)c4ccc(-c5ccc6c(c5)C(=O)N(*)C6=O)cc4C3=O)c(C)c2)cc1C (repeat unit)
-41.00 | *CC(F)(F)C(F)(F)C(F)(F)C(F)(F)COC(=O)O* (repeat unit)
55.00 | *CCCOC(=O)NCCCCCCNC(=O)O* (repeat unit)
156.00 | *SCC(=O)N/N=C/c1ccc(OCCCCCCCCCCOc2ccc(/C=N/NC(=O)CSc3nnc(*)s3)cc2OC)c(OC)c1 (repeat unit)
147.00 | *Oc1ccc(Oc2ccc(C(=O)c3ccc(C(=O)c4ccc(*)cc4)cc3)cc2)cc1-c1ccc(Cl)c(C(F)(F)F)c1 (repeat unit)
152.00 | *C(=O)NCC(C)(C)CNC(=O)c1ncn(C)c1* (repeat unit)
266.00 | *Oc1ccc(C(=O)Nc2ccc(C(c3ccc(NC(=O)c4ccc(OC(=O)c5ccc(C(*)=O)cc5)cc4)cc3)(C(F)(F)F)C(F)(F)F)cc2)cc1 (repeat unit)
390.00 | *c1ccc(-c2ccc(-c3cnc4cc(Oc5ccc6nc(*)cnc6c5)ccc4n3)cc2)cc1 (repeat unit)
89.00 | *CCN(*)C(=O)C(OC)(c1ccccc1)C(F)(F)F (repeat unit)
68.00 | *CCCCCCCCNC(=O)NCc1ccc(CNC(=O)N*)cc1 (repeat unit)

glass transition temperature [°C] | SMILES
97.50 | *OC(=O)C(Cc1ccccc1)NC(=O)CCCCC(=O)NC(Cc1ccccc1)C(=O)OC1COC2C(*)COC12 (repeat unit)
124.00 | *OS(=O)(=O)c1cccc(S(=O)(=O)Oc2ccc(C(C)(C)c3ccc(*)cc3)cc2)c1 (repeat unit)
137.00 | *CC(*)(C)C(=O)Oc1ccc(C(=O)/C=C/c2ccc(OC)c(OC)c2)cc1 (repeat unit)
167.00 | *C1C(=O)N(c2cc(Br)c(O[Si](C)(C)C)c(Br)c2)C(=O)C1* (repeat unit)
30.00 | *CC(CCC)C(CCC)COC(=O)c1ccc(C(=O)O*)cc1 (repeat unit)
305.00 | *c1ccc(Oc2ccc(-c3cc(-c4ccccc4)c4cc(-c5ccc6nc(*)cc(-c7ccccc7)c6c5)ccc4n3)cc2)cc1 (repeat unit)
255.00 | *c1ccc(-c2nc3cc(C(=O)c4ccc5nc(-c6ccccc6)c(-c6ccc(N7C(=O)C8OC9C(=O)N(*)C(=O)C9C8C7=O)cc6)nc5c4)ccc3nc2-c2ccccc2)cc1 (repeat unit)
105.00 | *Oc1ccc(Oc2ccc(/C=N/CCCC/N=C/c3ccc(*)cc3)cc2)cc1 (repeat unit)
265.00 | *C(=O)c1ccc2c(c1)C(=O)N(c1c(-c3ccccc3)cc(-c3ccc(-c4cc(-c5ccccc5)c(N5C(=O)c6ccc(*)cc6C5=O)c(-c5ccccc5)c4)cc3)cc1-c1ccccc1)C2=O (repeat unit)
57.00 | *OC(=O)C(C)NC(=O)CCCCCCC(=O)NC(C)C(=O)OC1COC2C(*)COC12 (repeat unit)
65.00 | *O[Si](C)(C)c1ccc2ccc3c([Si](*)(C)C)ccc4ccc1c2c43 (repeat unit)
138.80 | *CCN(CCOC(=O)OCc1ccc(COC(=O)O*)cc1)c1ccc(/N=N/c2ccc([N+](=O)[O-])cc2)cc1 (repeat unit)
120.00 | *C(=O)Nc1ccc(N2C(=O)CC(N3C(=O)c4ccc(*)cc4C3=O)C2=O)cc1 (repeat unit)
64.00 | *CCCCCCCCCCc1nc2ccc(-c3ccc4nc(*)oc4c3)cc2o1 (repeat unit)
194.00 | *OC(=O)Oc1ccc(C(C)(C)c2ccc(OC(=O)OC3CC4CC(*)CC(C3)O4)cc2)cc1 (repeat unit)
115.00 | *Nc1ccc(CCNC(=O)CCCCC(*)=O)cc1 (repeat unit)
119.00 | *Oc1ccc(-c2ccc(Oc3cccc(*)n3)cc2)cc1 (repeat unit)
303.50 | *Nc1ccc(C(C)(C)c2ccc(NC(=O)c3cc(NC(=O)c4ccccc4)cc(C(*)=O)c3)cc2)cc1 (repeat unit)

The remaining lines, values behind:

SMILES | glass transition temperature [°C]
*CC(*)C(=O)OCCCOC (repeat unit) | -66.50
*c1ccc(Cc2ccc(N3C(=O)CC(Nc4ccc(N(c5ccc(NC6CC(=O)N(*)C6=O)cc5)c5ccc([N+](=O)[O-])cc5)cc4)C3=O)cc2)cc1 (repeat unit) | 276.00
*c1ccc(Oc2ccc(C(=O)c3ccc(-c4ccc(C(=O)c5ccc(Oc6ccc(-c7nc(-c8ccccc8)[nH]c7*)cc6)cc5)cc4)cc3)cc2)cc1 (repeat unit) | 258.00
*c1ccc(Oc2ccc(-c3ccc(-c4ccc(Oc5ccc(-c6c7c(c(*)c8ccccc68)C(=O)N(c6ccccc6)C7=O)cc5)c(C(F)(F)F)c4)cc3)cc2C(F)(F)F)cc1 (repeat unit) | 317.00
*c1ccc(C(Cl)(Cl)C(*)Cl)cc1 (repeat unit) | 160.00
*Oc1ccc(C(C)(C)c2ccc(OC(=O)c3ccc(C(C)(C)c4ccc(C(*)=O)cc4)cc3)cc2)cc1 (repeat unit) | 230.00
*CCCCCCCCCNC(=O)C(OC)C(OC)C(=O)N* (repeat unit) | 84.00
*Oc1ccc(/N=C/C=N/c2ccc(OC(=O)NCCCCCCNC(*)=O)cc2)cc1 (repeat unit) | 80.00
*CCCCCCCCNC(=O)CCCCCCCCC(=O)N* (repeat unit) | 54.00
*CCCc1ccc(-c2c(-c3ccccc3)cc(-c3ccc(-c4cc(-c5ccccc5)c(-c5ccc(*)cc5)c(-c5ccccc5)c4-c4ccccc4)cc3)c(-c3ccccc3)c2-c2ccccc2)cc1 (repeat unit) | 290.00
*c1ccc(Oc2ccc(-c3cnc4cc5ncc(*)nc5cc4n3)cc2)cc1 (repeat unit) | 353.00
*CC(C)(C)CO* (repeat unit) | -50.00
*CC(*)C(=O)OCCSCCC#N (repeat unit) | -50.00
*CCCCCCCCC(=O)N* (repeat unit) | 48.00
*C(=O)c1ccc2c(c1)C(=O)N(c1ccc(C(=O)N(C)c3ccc(N4C(=O)c5ccc(*)cc5C4=O)cc3)cc1)C2=O (repeat unit) | 313.00
*c1ccc(Oc2ccc(-c3ccc(Oc4ccc(-c5cnc6cc(-c7ccc8nc(*)cnc8c7)ccc6n5)cc4)cc3)cc2)cc1 (repeat unit) | 213.00
*CC(*)(C)C(=O)OCC(O)CO (repeat unit) | 84.40

SMILES | glass transition temperature [°C]
*OP(=O)(Oc1ccc(NC(=O)Oc2ccc(C(C)(C)c3ccc(OC(=O)Nc4ccc(*)cc4)cc3)cc2)cc1)c1ccccc1 (repeat unit) | 34.00
*CC(F)(F)C(F)(F)C(F)(F)COC(=O)c1cccc(-c2cccc(C(=O)O*)c2)c1 (repeat unit) | 45.00
*CCOCCOCCOC(=O)c1ccc(-c2ccc(C(=O)O*)cc2)cc1 (repeat unit) | 20.00
*Oc1ccc(Oc2ccc(/C=N/CCCCCCCCCCCC/N=C/c3ccc(*)cc3)cc2)cc1 (repeat unit) | 118.00
*CC(O*)c1ccccc1 (repeat unit) | 34.00
*Oc1ccc(CC(NC(=O)CCc2ccc(OC(=O)COCCOCC(*)=O)cc2)C(=O)OCCCC)cc1 (repeat unit) | 45.00
*Oc1ccc(Oc2ccc(C(=O)c3cccc4cccc(C(=O)c5ccc(*)cc5)c34)cc2)cc1C(C)(C)C (repeat unit) | 230.00
*c1ccc(NC(=O)CCCCCC(=O)Nc2ccc(S(*)(=O)=O)cc2)cc1 (repeat unit) | 163.00
*CC(*)(C#N)C(=O)OCC (repeat unit) | 115.00
*CC(O)CN(*)c1cc(C)c(/N=N/c2ccc(Cl)cc2)c(C)c1 (repeat unit) | 150.00
*c1cc(CCCCCCCC)c(*)s1 (repeat unit) | -13.10 ± 5.5
*CC(*)(C)C(=O)OCCCCCCOc1ccc(C(=O)Oc2ccc(C(=O)/C=C/c3c(C)c4ccccc4n3C)cc2)cc1 (repeat unit) | 98.00
*CC1CCC(COP(=O)(/N=N/c2ccc(C(=O)c3ccc(/N=N/P(=O)(O*)OC)cc3)cc2)OC)CC1 (repeat unit) | 52.00
*CC(*)(C)C(=O)OCc1ccc2c(c1)OCCOCCOCCOCCO2 (repeat unit) | 38.00
*CC(*)C(=O)Oc1ccc(C#N)cc1 (repeat unit) | 92.00
*Oc1ccc(CC(NC(=O)CCc2ccc(OC(=O)COCCOCC(*)=O)cc2)C(=O)OC(C)C)cc1 (repeat unit) | 58.00
